# Reference: US12389930B2, “Breast milk-derived Lactobacillus plantarum and use thereof” (Beijing Sanyuan Foods Co., Ltd., priority 2020, dated 2025)
# Tested on: Lactobacillus plantarum P6
# Assay: Drug resistance determination (E-test strips, MIC)
# Assay type: cell-based
# Parameters: key to Susceptibility class of P6 to the antibiotic: S: susceptible; I: intermediate; R: resistance
# Conditions: for MIC: Lactiplantibacillus plantarum, P6, read-out: Minimum inhibitory concentration MIC; for Susceptibility of P6 to the antibiotic (in words): summary of Table 3
# Description: The cultured P6 bacteria solution was activated for three generations, and streaked on the MRS solid medium plate, which was then cultured in an anaerobic incubator at 37° C. for 24 hours. A single colony was picked up and dissolved in normal saline to prepare a suspension equivalent to 0.5 […] concentration, which was then coated on an MH solid medium. After drying, ten E-test strips were attached onto the MH solid medium, and cultured at 37° C. for 24-48 hours. The MIC value (minimum inhibitory concentration value) was determined according to the inhibition zone diameter. Escherichia coli ATCC25922 and Staphylococcus aureus ATCC25923 were used as quality-control strains. Quality-control strains were used as control for each batch test, and the MIC of the quality-control strains was required to be within the range specified by CLSI (Clinical and Laboratory Standards […]). An MH solid plate without antibiotics was used as blank control.
# [1] = E-test, MH solid medium, 37° C., 24-48 hours
SMILES,MIC [1] [µg/mL],Susceptibility of P6 to the antibiotic (in words),Minimum inhibitory concentration MIC [1] [µg/mL],"Susceptibility class of P6 to the antibiotic (E-test, class after the slash in the MIC cell)"
CO/N=C(\C(=O)N[C@@H]1C(=O)N2C(C(=O)O)=C(CSc3nc(=O)c(=O)[nH]n3C)CS[C@H]12)c1csc(N)n1 [ceftriaxone],0.125,extremely susceptible,–,–
CC1(C)S[C@@H]2[C@H](NC(=O)Cc3ccccc3)C(=O)N2[C@H]1C(=O)O [penicillin G],–,resistant,32,R
CCC[C@@H]1C[C@@H](C(=O)N[C@@H]([C@H]2O[C@H](SC)[C@H](O)[C@@H](O)[C@H]2O)[C@H](C)Cl)N(C)C1 [clindamycin],0.016,–,–,–
CN(C)[C@@H]1C(O)=C(C(N)=O)C(=O)[C@@]2(O)C(O)=C3C(=O)c4c(O)cccc4[C@@](C)(O)[C@H]3C[C@@H]12 [tetracycline],256,–,–,–
O=C(N[C@H](CO)[C@H](O)c1ccc([N+](=O)[O-])cc1)C(Cl)Cl [chloramphenicol],16,intermediately susceptible,–,–
CC1(C)S[C@@H]2[C@H](NC(=O)[C@H](N)c3ccccc3)C(=O)N2[C@H]1C(=O)O [ampicillin],1.5,extremely susceptible,–,–
"CC[C@H]1OC(=O)[C@H](C)[C@@H](O[C@H]2C[C@@](C)(OC)[C@@H](O)[C@H](C)O2)[C@H](C)[C@@H](O[C@@H]2O[C@H](C)C[C@H](N(C)C)[C@H]2O)[C@](C)(O)C[C@@H](C)CN(C)[C@H](C)[C@@H](O)[C@]1(C)O [azithromycin, Azithromycin]",0.094,extremely susceptible,–,–
CC[C@H]1OC(=O)[C@H](C)[C@@H](O[C@H]2C[C@@](C)(OC)[C@@H](O)[C@H](C)O2)[C@H](C)[C@@H](O[C@@H]2O[C@H](C)C[C@H](N(C)C)[C@H]2O)[C@](C)(O)C[C@@H](C)C(=O)[C@H](C)[C@@H](O)[C@]1(C)O [erythromycin],0.38,extremely susceptible,–,–
NCC[C@H](O)C(=O)N[C@@H]1C[C@H](N)[C@@H](O[C@H]2O[C@H](CN)[C@@H](O)[C@H](O)[C@H]2O)[C@H](O)[C@H]1O[C@H]1O[C@H](CO)[C@@H](O)[C@H](N)[C@H]1O [amikacin],2,extremely susceptible,–,–
